Common to all, as to test: In vitro cytotoxicity, MTT micro-titration analysis
What all share (assay type): cell-based

Test [1] has as its system human cancer cell line of prostate carcinoma LNCaP. Particulars: LNCaP cells, 24 h incubation with complex, read-out: inhibition concentrations IC50. On the procedure: (§1) The cytotoxic activities of the prepared complexes, as it is given below in the examples 1-6, were tested by micro-titration analysis using 3-(4,5-dimethylthiazol-2-yl)-2,5-diphenyltetrazolium bromide (MTT). The test detected living cells, whose number corresponds to the reduced MTT quantity. In vitro cytotoxicity was tested against the following human cancer cells: lung carcinoma A549, malignant melanoma G361, cervix carcinoma HeLa, ovarian carcinoma A2780, cisplatin-resistant ovarian carcinoma A2780R and prostate carcinoma LNCaP. The cells were maintained in plastic tissue culture flasks in the DMEM medium (5 g/L of glucose, 2 mM of glutamine, 100 U/mL of penicillin, 100 µg/mL of streptomycine, 10% fetal calf serum and sodium hydrogen carbonate) for cell cultures. The cell suspensions (ca 1.25 x 10^5 cells mL^-1) were pipetted (80 µL) into 96-well microplates. They were incubated at 37 °C in the CO2 atmosphere for 24 h. The tested dichlorido complexes of platinum were dissolved in N,N'-dimethylformamide (DMF) and diluted to the 50.0 mM concentration - these solutions represent the stock solutions. […]
The in vitro antitumor activity of the studied complexes cis-[PtCl2(L2)2] […] (3) against human cancer cell line of prostate carcinoma LNCaP was determined by the above-described micro-titration analysis using MTT (L2 = 3-chloro-7-azaindole, L3 = 3-iodo-7-azaindole, L6 = 5-bromo-7-azaindole).

For test [2], the system named is human cancer cell line of lung carcinoma A549. The conditions noted are these: A549 cells, 24 h incubation with complex, read-out: inhibition concentrations IC50. On the procedure: as §1
The in vitro antitumor activity of the studied complexes cis-[PtCl2(L2)2] […] (3) against human cancer cell line of lung carcinoma A549 was determined by the above-described micro-titration analysis using MTT (L2= 3-chloro-7-azaindole, L3 = 3-iodo-7-azaindole, L6 = 5-bromo-7-azaindole).

Test [3] concerns human cancer cell line of cervix carcinoma HeLa. The conditions noted are these: HeLa cells, 24 h incubation with complex, read-out: inhibition concentrations IC50. On the procedure:
as §1
The in vitro antitumor activity of the studied complexes cis-[PtCl2(L2)2] […] (3) against human cancer cell line of cervix carcinoma HeLa was determined by the above-described micro-titration analysis using MTT (L2 = 3-chloro-7-azaindole, L3 = 3-iodo-7-azaindole, L6 = 5-bromo-7-azaindole).

Test [4] relates to human cancer cell line of malignant melanoma G361. The conditions noted are these: G361 cells, 24 h incubation with complex, read-out: inhibition concentrations IC50. On the procedure: as §1
The in vitro antitumor activity of the studied complexes cis-[PtCl2(L2)2] […] (3) against human cancer cell line of malignant melanoma G361 was determined by the above-described micro-titration analysis using MTT (L2 = 3-chloro-7-azaindole, L3 = 3-iodo-7-azaindole, L6 = 5-bromo-7-azaindole).

For test [5], the system named is human cancer cell line of cisplatin-resistant ovarian carcinoma A2780R. The conditions noted are these: A2780R cells, 24 h incubation with complex, read-out: inhibition concentrations IC50. On the procedure: as §1, with “h.” for “h. The tested dichlorido complexes of platinum were dissolved in N,N'-dimethylformamide (DMF) and diluted to the 50.0 mM concentration - these solutions represent the stock solutions.”
The in vitro antitumor activity of the studied complexes cis-[PtCl2(L2)2] […] (3) against human cancer cell line of cisplatin-resistant ovarian carcinoma A2780R was determined by the above-described micro-titration analysis using MTT (L2 = 3-chloro-7-azaindole, L3 = 3-iodo-7-azaindole, L6 = 5-bromo-7-azaindole).

Test [6] has as its system human cancer cell line of ovarian carcinoma A2780. Particulars: A2780 cells, 24 h incubation with complex, read-out: inhibition concentrations IC50. On the procedure:
as §1
The in vitro antitumor activity of the studied complexes cis-[PtCl2(L2)2] […] (3) against human cancer cell line of ovarian carcinoma A2780 was determined by the above-described micro-titration analysis using MTT (L2 = 3-chloro-7-azaindole, L3 = 3-iodo-7-azaindole, L6 = 5-bromo-7-azaindole).

Regarding `N.N.[Cl][Pt][Cl]` [cisplatin, Cis-diammine-dichloridoplatinum(II) complex, reference compound], the IC50 in test [1] was 3.8 ± 1.5 µM; in test [2], 25.8 ± 7.1 µM; in test [3], 10 ± 2.6 µM; in test [4], 3.4 ± 0.1 µM; in test [5] it was 27 ± 4.6 µM; in test [6], 12 ± 0.8 µM.

(Values after patent EP2636410A1, “Utilization of the dichlorido complexes of platinum with 7-azaindole halogeno-derivatives for the preparation of drugs for the treatment of tumour diseases” (Univerzita Palackeho, priority 2012, dated 2013).)
